The text below walks through data of US8618122B2, “Compound having acidic group which may be protected, and use thereof” (Ono Pharmaceutical Co., Ltd., priority 2006, dated 2013).

In data set [1] the target is T1, CXCR4 (Homo sapiens, UniProt P61073).
T1 construct: a human T cell strain in which CXCR4 is known to be expressed; endogenous in cells; host or cells: CEM cells (human T cell strain)
Description: Inhibition of binding human SDF-1 (125I-SDF-1) to CEM cells. The conditions noted are these: 125I-SDF-1 binding to human T cell strain CEM cells, 4° C., 60 minutes. The protocol: Specifically, as a system of screening a compound that inhibits the binding between SDF-1 and CXCR4, for example a system of measuring the binding between iodine-labeled SDF-1 and a human T cell strain in which CXCR4 is known to be expressed is operable.
To human T cell strain CEM cells in a binding buffer (containing HEPES and BSA), the test compound and ^125I-SDF-1 (NEN) were added and the mixture was incubated at 4° C. for 60 minutes. The reacted CEM cells were rapidly filtrated with a GF/B membrane filter plate (Packard) to adsorb. The plate was washed with phosphate buffered saline (hereinafter abbreviated to PBS) three times and then dried. Microscint+20 (Packard) was added thereto. An amount of the radioactivity bound to the CEM cells was measured using Top Count (Packard) and inhibition (%) of the test compound was calculated according to the following equation: Inhibition={(Et−Ea)/(Et−Ec)}×100
Et: Amount of radioactivity when the test compound is not added,
Ec: Amount of radioactivity when non-radioactive SDF-1 (Pepro Tech) is added in an amount of 1,000 times as much as ^125I-SDF-1 as a test compound,
Ea: Amount of radioactivity when the test compound is added.

The nature of data set [2]: Artificial lipid membrane binding using Biacore S51 system (in vitro phospholipidosis risk). The conditions noted are these: for Determination: Biacore lipid membrane binding, positive if corrected value 150 or more; for Corrected value of binding response (RU): compound 50 μM in PBS/5% DMSO (pH 7.4), 37° C., DOPA liposome on Sensor Chip L1. The protocol: 10 mM of 1,2-dioleoyl-sn-glycero-3-phosphate monosodium salt (hereinafter abbreviated as DOPA) chloroform solution was evaporated to dryness by means of an aspirator, and 0.6 mL of PBS/5% dimethyl sulfoxide (hereinafter abbreviated as DMSO) was added. The solution was fully suspended by the vortex mixer, and the freezing and thawing were repeated for 5 times. Liposome was created by the liposome preparation instrument (manufactured by Avestin Inc.) and two syringes, and was diluted to 0.5 mM with PBS/5% DMSO just prior to immobilization.
38 μl of 1×PBS was added to 2 μl of a DMSO solution (10 mM), and the 360 μl of 1×PBS/5% DMSO was further added thereto and the 50 μM of final concentration in PBS/5% DMSO was prepared and measured.
All of the following analysis used Biacore® S51 system and the measurement conditions were set by Biacore S51 Control Soft.
The measurement temperature was set to be 37° C., and PBS/5% DMSO (pH 7.4) was used as a buffer. Series S Sensor Chip L1 was used for a sensor chip. DOPA was immobilized in one of the measuring spots on the sensor surface and the central spot was used as a reference.
Immobilization of liposome was conducted at a flow rate of 10 μL/min for about 3 minutes and then the compound was added at a flow rate of 30 μL/min and the interaction was measured. The measurement conditions are as follows: • Assay buffer: PBS/5% DMSO (pH 7.4) • Measurement temperature: 37° C. • Sensor chip: Series S Sensor Chip L1 • Flow rate: 10 μL/min at the time of the liposome immobilization; 30 μL/min at the time of the measurement of interaction with the compound Regeneration: 20 mM CHAPS (3-[(3-cholamidopropyl)dimethylammonio]-1-propanesulfonate), isopropanol/aqueous 50 mM sodium hydroxide solution=40/60 (volume ratio) mixture (60 seconds) (4) Data Processing
The data processing was conducted by means of method of Abdiche et al. (Analytical biochemistry, 328, 233-243 (2004)) by using Biacore S51 Evaluation Soft.
Regarding the value of binding response (RU) in which the value of reference was subtracted, it was divided by a sample molecular weight after minute error of the DMSO concentration included in the sample solution was corrected. In addition, the value obtained here was divided by an amount of capture at the time of the cycle because the value obtained here was proportional to the amount of capture of the liposome and the value was multiplied by a million to be considered as a corrected value (Corrected value=1,000,000×RU (test compound)/molecular quantity (test compound) RU (liposome)).
Propranolol, amiodarone, desipramine, imipramine and procaine were added as the controls, and it was recognized that the variation of the binding response was within about 10 to 15%.
The compound wherein a value of the binding response after the correction was 150 or more was determined as positive.
In general terms: SPR reads the build-up and loss of mass on a sensor chip optically.

Data set [3] concerns CHL/IU (cell line derived from a Chinese hamster lung). Description: Phospholipidosis detecting system using fluorescent labeling phospholipid analog (NBD-PE). The conditions noted are these: for Rate of increase of phopholipid accumulation (%): compound dose: 100 μM, CHL/IU cells, NBD-PE, about 24 hours; for Determination: positive if 25% or more of maximum increase rate of amiodarone. It counts as cell-based. As for the experimental part: 100 μL/well as required (1 dose 2 wells) of cell suspension of CHL/IU (cell line derived from a Chinese hamster lung) (7×10^4 cells/mL) prepared by MEM (minimum essential medium) culture medium was added to a 96-well plate (96-well clear-bottom plate), and cultured for about 24 hours. After culture, the supernatant of the 96-well plate was removed, and the 100 μL/well compounds of each concentration dissolved and suspended in an MEM including 25 μmol/L nitrobenzoxadiazole dipalmitoyl phosphatidylethanolamine (NBD-PE) (hereinafter abbreviated as a NPD-PE medium) were added and treated for about 24 hours. The treatment concentrations of each compound were set to be 6.25, 12.5, 25, 50 and 100 μmol/L. The positive control substance was set to be amiodarone hydrochloride, and the treatment concentrations were set to be 1.25, 2.5, 5, 10 and 20 μmol/L. In addition, 5-well untreated controls (only MEM) and 5-well NBD-PE controls (made by means of adding a 1/100 amount of DMSO to the NBD-PE culture medium) were set per compound, and cultured in the same manner. After finishing the culture, the cultures were washed twice with phosphate buffered saline (hereinafter abbreviated as PBS) (−) 100 μL/well, and the MEM (100 μL) was added to all of the treatment wells including two empty wells for WST-1 background controls and cultured for about a half hour. The fluorescence intensities of each well were measured by using a microplate reader (manufactured by Molecular Devices Inc., SPECTRA max M2; the excitation wavelength 485 nm/fluorescence wavelength 535 nm). Using the average values of each dose×2 wells, a phospholipid increase rate (%) to the NBD-PE control was calculated by using the following calculating formula: Rate of increase of pholipid accumulation (%)=100×{(test compound fluorescence intensity−non-treated control fluorescence intensity)/(NBD-PE control fluorescence intensity−non-treated control fluorescence intensity)} (3) Cytotoxicity Assay 96-well plate measured in the phospholipid accumulation measurement was measured by means of Plate Reader (manufactured by Molecular Devices Inc., SPECTRA max M2) with the main wavelength of 450 nm and the correct wavelength of 690 nm to calculate a Pre value. An amount of 5 μL/well of Premix WS T-1 was added to each of the 96-hole plates by which Pre measurement was conducted. After culture for 2 to 4 hours, the 96-well plate was measured as well as the Pre measurement to calculate an Aft value. Then, the background control value was subtracted from the each measured value. A value which was calculated by subtracting the Pre value from the Aft value was used, then the cell growth rate (%) was calculated by using the following calculating formula: Cell growth rate (%)=100×[(test substance OD)/(NBD-PE control OD)] (4) Determination A test dose that indicated value of 25% or more of the maximum phospholipid accumulation increase rate of amiodarone which was the positive control was determined as positive. In addition, the dose whose cell growth rate was equal to or less than 50% in the cytotoxicity assay was not used for determination of existence or nonexistence of a phospholipidosis inductive effect.

T1 sequence (P61073 whole entry): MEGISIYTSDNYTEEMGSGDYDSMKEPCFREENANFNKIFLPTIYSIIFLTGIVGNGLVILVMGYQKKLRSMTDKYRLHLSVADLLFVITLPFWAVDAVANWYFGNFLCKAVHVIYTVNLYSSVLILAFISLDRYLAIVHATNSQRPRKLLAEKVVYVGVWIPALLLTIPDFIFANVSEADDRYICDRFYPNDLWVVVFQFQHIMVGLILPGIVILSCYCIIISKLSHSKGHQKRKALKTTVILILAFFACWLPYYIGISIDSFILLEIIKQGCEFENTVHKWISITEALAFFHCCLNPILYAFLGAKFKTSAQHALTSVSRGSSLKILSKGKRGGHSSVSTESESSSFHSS

With `O=C(O)CCn1ccnc1CN(Cc1ccc(CN2CCC3(CCN(C4CCCCC4)CC3)C2)cc1)Cc1ncc[nH]1` [Example 9 (1), 3-(2-{[{4-[(8-cyclohexyl-2,8-diazaspiro[4.5]dec-2-yl)methyl]benzyl}(1H-imidazol-2-ylmethyl)amino]methyl}-1H-imidazol-1-yl)propionic Acid], the IC50 – broadly, the concentration at which inhibition is half-maximal – in data set [1] worked out at 0.0034 µM. In data set [2], the Determination result is on record as “Negative (The compound wherein a value of the binding response after the correction was 150 or more was determined as positive)” and the “Corrected value of binding response (RU)” value turned out to be 52.0 RU. Further, in data set [3], the “Rate of increase of phopholipid accumulation (%)” value (“Rate of increase … (%)” below) stood at 6% and the Determination entry is “Negative (A test dose that indicated value of 25% or more of the maximum phospholipid accumulation increase rate of amiodarone which was the positive control was determined as positive)”.
The matching figures for `O=C(O)Cn1ccnc1CN(Cc1ccc(CN2CCC3(CCN(C4CCCCC4)CC3)C2)cc1)Cc1ncc[nH]1` [Example 9, (2-{[{4-[(8-cyclohexyl-2,8-diazaspiro[4.5]dec-2-yl)methyl]benzyl}(1H-imidazol-2-ylmethyl)amino]methyl}-1H-imidazol-1-yl)acetic Acid]: 0.0048 µM, “Negative (The compound wherein a value of the binding response after the correction was 150 or more was determined as positive)”, 59.0 RU, 10% and “Negative (A test dose that indicated value of 25% or more of the maximum phospholipid accumulation increase rate of amiodarone which was the positive control was determined as positive)”.
In data set [1], `CC(OC(=O)CCn1ccnc1CN(Cc1ccc(CN2CCC3(CCN(C4CCCCC4)CC3)C2)cc1)Cc1ncc[nH]1)OC(=O)OC1CCCCC1` (centres unmarked) [Example 36, 1-{[(cyclohexyloxy)carbonyl]oxy}ethyl 3-(2-{[{4-[(8-cyclohexyl-2,8-diazaspiro[4.5]dec-2-yl)methyl]benzyl}(1H-imidazol-2-ylmethyl)amino]methyl}-1H-imidazol-1-yl)propanoate] returned a half-maximal inhibitory concentration (IC50) of 0.0204 µM.
Still for that read-out and setting: next, `CCOC(=O)CCCn1ccnc1CN(Cc1ccc(CN2CCC3(CCN(CC(C)C)CC3)C2)cc1)Cc1ncc[nH]1` [Example 37 (1), Ethyl 4-(2-{[(1H-imidazol-2-ylmethyl){4-[(8-isobutyl-2,8-diazaspiro[4.5]dec-2-yl)methyl]benzyl}amino]methyl}-1 H-imidazol-1-yl)butanoate]: 0.0137 µM.
The same measure, in the same setting: the value for `CCOC(=O)CCCn1ccnc1CN(Cc1ccc(CN2CCC3(CCN(C(CC)CC)CC3)C2)cc1)Cc1ncc[nH]1` [Example 37 (3), Ethyl 4-(2-{[(4-{[8-(1-ethylpropyl)-2,8-diazaspiro[4.5]dec-2-yl]methyl]benzyl)(1 H-imidazol-2-ylmethyl)amino]methyl}-1H-imidazol-1-yl)butanoate] was 0.0118 µM.
`CC(C)CN1CCC2(CC1)CCN(Cc1ccc(CN(Cc3ncc[nH]3)Cc3nccn3CCCC(=O)O)cc1)C2` [Example 38 (1), 4-(2-{[(1H-imidazol-2-ylmethyl){4-[(8-isobutyl-2,8-diazaspiro[4.5]dec-2-yl)methyl]benzyl}amino]methyl}-1H-imidazol-1-yl)butanoic Acid]: the half-inhibitory concentration (IC50) in data set [1] came to 0.0187 µM. In data set [2], the Determination entry is reported as “Negative (The compound wherein a value of the binding response after the correction was 150 or more was determined as positive)” and the “Corrected value of binding response (RU)” value is 5.4 RU. Besides, in data set [3], the “Rate of increase … (%)” value amounted to 8% and the Determination entry was “Negative (A test dose that indicated value of 25% or more of the maximum phospholipid accumulation increase rate of amiodarone which was the positive control was determined as positive)”.
As for `CCC(CC)N1CCC2(CCN(Cc3ccc(CN(Cc4ncc[nH]4)Cc4nccn4CCCC(=O)O)cc3)C2)CC1` [Example 38 (3), 4-(2-{[(4-{[8-(1-ethylpropyl)-2,8-diazaspiro[4.5]dec-2-yl]methyl]benzyl)(1H-imidazol-2-ylmethyl)amino]methyl}-1H-imidazol-1-yl)butanoic Acid], in data set [1], the IC50 came out at 0.012 µM. In addition, in data set [2], the Determination entry is “Negative (The compound wherein a value of the binding response after the correction was 150 or more was determined as positive)” and the “Corrected value of binding response (RU)” value was 98.9 RU. Moreover, in data set [3], the “Rate of increase … (%)” value was 11% and the Determination result was “Negative (A test dose that indicated value of 25% or more of the maximum phospholipid accumulation increase rate of amiodarone which was the positive control was determined as positive)”.
